# Measurements taken from patent US7723064B2, “Methods for monitoring patients for efficacy of an antiplatelet therapy regimen” (Siemens Healthcare Diagnostics Inc., priority 2004, dated 2010).
# Assays:
# [1] = tested on: platelets (platelet activation); test: Mean platelet component concentration (MPC, platelet density) on the ADVIA 120 Hematology System in whole blood of patients before and after anti-platelet therapy and PTCA; type: in vivo, human; conditions: for mean MPC level: Clopidogrel patients n=29, baseline 27.8±0.4 g/dL; for mean MPC level / MPC level: mean±SE; for MPC level: abciximab patients n=15, baseline 28.0±0.3 g/dL
# Experimental: (§1) Patients. A total of 44 patients who underwent elective percutaneous coronary angioplasty and stenting were evaluated. The study was approved by the institutional committee on human research. Patients were enrolled in the study after informed consent had been obtained. Their baseline variables including age, gender, smoking history, risk factors, antecedents and medication were documented. These patients received either a loading dose of Clopidogrel (300 mg) before the beginning of the PTCA procedure followed by 75 mg daily for 1 month or intravenously a 0.25 mg/kg, bolus of Abciximab before the beginning of the PTCA procedure followed by a 0.125 μg/kg/mn infusion for 12 h.
# (§2) Blood collection. Blood was drawn with a 21-gauge needle into EDTA (5 mM) tubes, mixed immediately with the anticoagulant and avoiding frothing during the mixing procedure. The first 1-2 ml of blood were discarded to avoid the effects of traces of thrombin generated during venipuncture. Serum was collected for CRP measurements. Whole blood specimens for measurement of the ADVIA® 120 Hematology System platelet parameters and flow cytometry analysis were taken prior to baseline, 2 hours, and 24 hours after administration of anti-platelet therapy and PTCA. For platelet activation measurements, all specimens were processed within 1 h after blood collection.
# Bayer ADVIA 120 automated hematology system platelet density measurement. The two-dimensional platelet method is based on the analysis of platelets in whole blood by flow cytometry using the ADVIA 120. The system was standardized and calibrated as per the manufacturer's instructions. The ADVIA 120 Hematology System was quality-controlled using TESTpoint Hematology control reagents (Bayer HealthCare, LLC, Tarrytown, N.Y.). The whole blood specimens anticoagulated with EDTA were processed within 1 h after specimen collection. […] See Macey M. G. et al., Cytometry (1999) 38:250-255; Chapman E. S. et al., Thromb. Haemost. (2003) 89:1004-1015; Ahnadi C. E. et al., Thromb. Haemost (2003) 90:940-948. In this study, MPC determinations were acquired as a measure of platelet activation at baseline, 2 hours, and 24 hours after anti-platelet drug therapy.
# (§3) Patients. A total of 44 patients who underwent elective percutaneous coronary angioplasty and stenting were evaluated Patients were enrolled in the study after informed consent had been obtained. Their baseline variables including age, gender, smoking history and medication were documented. The treatments were assigned based on the angiographic characteristics. Patients with presence of thrombus and high risk vessel disease were assigned to Abciximab. Two thirds (n=29) of patients received a loading dose of Clopidogrel (300 mg) before the beginning of the PTCA procedure followed by 75 mg daily for 1 month. One third (n=15) of patients received a 0.25 mg/kg bolus of Abciximab intravenously before the beginning of the PTCA procedure followed by a 0.125 μg/kg/min infusion for 12 h. These patients also received Clopidogrel a designated number of hours after PTCA.
# Collection of blood. Blood was drawn with a 21-gauge needle into EDTA (5 mM) tubes, mixed immediately with the anticoagulant, and avoiding frothing during the mixing procedure. The first 1-2 ml of blood were discarded to avoid the effects and traces of thrombin generated during venipuncture. Universal precautions were taken at all times during phlebotomy. Whole blood specimens for measurement of the ADVIA 120 System platelet parameters and CD62P-PE flow cytometry analysis were taken prior to baseline, 2 h, 5 h, and 24 h after administration of a loading charge of Clopidogrel and percutaneous transluminal coronary angioplasty (PTCA), and prior to, 10 min, 2 h, and 24 h after administration of the Abciximab bolus and PTCA. All specimens were processed within 1 h after blood collection.
# Bayer ADVIA 120 Automated Hematology System platelet density measurement. […]
# [2] = tested on: CD62P (P-selectin) expression on platelets; test: Platelet CD62P (P-selectin) expression by fluorescence flow cytometry in whole blood of patients before and after anti-platelet therapy and PTCA; type: in vivo, human; conditions: for mean CD62P expression (percent positive events): Clopidogrel patients n=29, 300 mg loading dose and PTCA, baseline 9.5±3.3%; for mean CD62P expression (percent positive events) / CD62P percent positive expression / CD62P expression (percent positive events): mean±SE; for CD62P percent positive expression: patients with high baseline platelet activation, baseline 23.4±6.6%, p<0.01; for CD62P expression (percent positive events): abciximab patients n=15, 0.25 mg/kg bolus plus infusion and PTCA, baseline 9.3±4.0%
# Experimental: as §1, §2
# Fluorescence flow cytometry analysis. Whole blood samples were fixed with methanol-free paraformaldehyde (final concentration 0.5%). Fixed blood (5 μl) was incubated at room temperature for 15 min in the dark with monoclonal antibody CD61a-FITC. (10 μl) to identify the platelets and CD62P-PE (10 μl) to measure the expression of P-selectin. Platelets labeled with FITC or PE-conjugated isotype control antibody were used as control for nonspecific staining.
# Samples were diluted to 1 ml with PBS. FACScan calibration and compensation were performed as recommended by the manufacturer. Five thousand (5,000) CD61a positive events were acquired on the FACScan flow cytometer (Becton Dickinson, Franklin Lakes, N.J.) equipped with Lysis II software. Data analysis was performed using a threshold based on the FITC-fluorescence correlating to the platelet specific binding of CD61a-FITC antibodies. A gate was drawn around the fluorescent platelet population. The CD61a-FITC labeled platelets that were also positive for PE-conjugated activation marker antibody (CD62P) was quantitated and presented as percentage of positive events.
# as §3
# Collection of blood. Blood was drawn with a 21-gauge needle into EDTA (5 mM) tubes, mixed immediately with the anticoagulant, and avoiding frothing during the mixing procedure. The first 1-2 ml of blood were discarded to avoid the effects and traces of thrombin generated during venipuncture. Universal precautions were taken at all times during phlebotomy. […]
# [3] = tested on: platelet activation markers CD62, CD63, and PAC-1; conditions: after stimulation with ADP or thrombin; healthy subjects and patients after myocardial infarction; cited from earlier work
molecule,measurement,setting,value
COC(=O)[C@H](c1ccccc1Cl)N1CCc2sccc2C1 [Clopidogrel],mean MPC level,[1]; 2 h,28.4 ± 0.3 g/dL
same,mean MPC level,[1]; 5 h,28.9 ± 0.2 g/dL
same,mean MPC level,[1]; 24 h,28.7 ± 0.2 g/dL
same,MPC value,"[1]; patients with high baseline platelet activation, 2 h, baseline 25.7±0.8 g/dL, p<0.01",28.0 ± 0.5 g/dL
same,MPC value,"[1]; patients with high baseline platelet activation, 5 h, baseline 25.7±0.8 g/dL, p<0.01",28.8 ± 0.3 g/dL
same,MPC value,"[1]; patients with high baseline platelet activation, 24 h, baseline 25.7±0.8 g/dL, p<0.01",28.4 ± 0.3 g/dL
same,mean CD62P expression (percent positive events),[2]; 2 h,3.1±1.8%
same,mean CD62P expression (percent positive events),[2]; 5 h,1.2±0.7%
same,mean CD62P expression (percent positive events),[2]; 24 h,1.8±1.1%
same,platelet activation as determined by both CD62P decrease and increasing MPC,[2]; group of patients with the greatest baseline platelet activation,significant reduction
same,CD62P percent positive expression,[2]; 2 h,2.0±1.0%
same,CD62P percent positive expression,[2]; 5 h,0.3±0.1%
same,CD62P percent positive expression,[2]; 24 h,1.5±0.5%
same,"expression of platelet activation markers CD62, CD63, and PAC-1",[3],suppresses expression
CC(=O)Oc1ccccc1C(=O)O [aspirin],platelet inhibition effect,"[2]; patients on aspirin therapy before admission, by the classic (CD62P) or new (MPC) platelet activation measurements",not demonstrated
"Abciximab (antibody, chains of the INN, looked up, V domains shown, Fab, the monoclonal antibody, abciximab) VH: EVQLQQSGTVLARPGASVKMSCEASGYTFTNYWMHWVKQRPGQGLEWIGAIYPGNSDTSYIQKFKGKAKLTAVTSTTSVYMELSSLTNEDSAVYYCTLYDGYYVFAYWGQGTLVTVSA VL: EIVLTQSPVTLSVTPGDSVSLSCRASRDISNNLHWFQQTSHESPRLLIKYASQSMSGIPSRFSGSGSGTDFTLSINSVETEDFGMYFCQQTNSWPYTFGGGTKLEIK",MPC level,[1]; 10 min,27.9 ± 0.3 g/dL
same,MPC level,[1]; 2 h,28.0 ± 0.4 g/dL
same,MPC level,[1]; 24 h,28.4 ± 0.2 g/dL
same,MPC value,"[1]; one patient, 2 hours after Abciximab and angioplasty, baseline 28.3 g/dL, complications of pacemaker installation",22.8 g/dL
same,CD62P expression (percent positive events),[2]; 2 h,7.9±5.4%
same,CD62P expression (percent positive events),[2]; 24 h,0.7±0.3%
same,CD62P-PE value,"[2]; one patient, 2 hours after Abciximab and angioplasty, baseline 4.2%, complications of pacemaker installation",75%
